# In the supplement of paper PMC10307832:
# Columns and labels:
# Experiment in all cases: relative viability (nuclei count vs DMSO), 5 days (fraction); higher = more cells survive
# [1] = compound: O=C(O)c1ccc2c(c1)nc(Nc1cccc(Cl)c1)c1ccncc12 [Silmitasertib] + O=C(CCCCCCC(=O)Nc1ccccc1)NO [Vorinostat] (partner 1 µM)
# Method in brief: (§1)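 After 5 days of treatment, lung cancer cells in 1536-well plates were fixed and stained in a single step (final 0.05% Triton X-100, 1% formaldehyde, 1 ug/ml Hoechst) and their nuclei counted on 4× images. Treatment had been applied by pin tool the day after seeding as one drug alone or as a fixed anchor-drug dose with five library-drug doses (not always all listed) in √10 steps. Relative viability is the nuclei count of treated wells divided by that of vehicle wells, and values are medians of duplicate plates.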
# [2] = compound: O=C(O)c1ccc2c(c1)nc(Nc1cccc(Cl)c1)c1ccncc12 [Silmitasertib] + CC(C)C[C@H](NC(=O)[C@H](Cc1ccccc1)NC(=O)c1cnccn1)B(O)O [Bortezomib] (partner 0.002 µM)
# Method in brief: as §1
# [3] = compound: O=C(O)c1ccc2c(c1)nc(Nc1cccc(Cl)c1)c1ccncc12 [Silmitasertib] + COc1cc2c(Oc3ccc(NC(=O)C4(C(=O)Nc5ccc(F)cc5)CC4)cc3F)ccnc2cc1OCCCN1CCOCC1 [Foretinib] (partner 0.25 µM)
# Method in brief: as §1
# [4] = compound: O=C(O)c1ccc2c(c1)nc(Nc1cccc(Cl)c1)c1ccncc12 [Silmitasertib] + CCNC(=O)c1noc(-c2cc(C(C)C)c(O)cc2O)c1-c1ccc(CN2CCOCC2)cc1 [Luminespib] (partner 0.01 µM)
# Method in brief: as §1
# [5] = compound: O=C(O)c1ccc2c(c1)nc(Nc1cccc(Cl)c1)c1ccncc12 [Silmitasertib] + Cc1cc(Nc2cc(N3CCN(C)CC3)nc(Sc3ccc(NC(=O)C4CC4)cc3)n2)n[nH]1 [Tozasertib] (partner 0.1 µM)
# Method in brief: as §1
Cell Line,relative viability ([1]; first compound 0.04 µM),relative viability ([1]; first compound 0.4 µM),relative viability ([1]; first compound 1.265 µM),relative viability ([1]; first compound 4 µM),relative viability ([2]; first compound 0.04 µM),relative viability ([2]; first compound 0.4 µM),relative viability ([2]; first compound 1.265 µM),relative viability ([2]; first compound 4 µM),relative viability ([3]; first compound 0.04 µM),relative viability ([3]; first compound 0.4 µM),relative viability ([3]; first compound 1.265 µM),relative viability ([3]; first compound 4 µM),relative viability ([4]; first compound 0.04 µM),relative viability ([4]; first compound 0.4 µM),relative viability ([4]; first compound 1.265 µM),relative viability ([4]; first compound 4 µM),relative viability ([5]; first compound 0.04 µM),relative viability ([5]; first compound 0.4 µM),relative viability ([5]; first compound 1.265 µM),relative viability ([5]; first compound 4 µM)
NCI-H322M,0.994,0.936,0.968,0.653,1.25,0.881,0.947,0.804,1.01,0.836,0.623,0.544,0.968,0.893,0.693,0.44,0.51,0.505,0.377,0.342
NCI-H441,0.935,,0.822,0.843,0.514,,0.496,0.17,0.871,,0.67,0.277,0.369,,0.329,0.242,0.61,,0.512,0.472
NCI-H460,0.722,0.747,0.668,0.842,1.22,0.967,1.09,1.15,1.04,0.961,1.07,1.15,0.0354,0.0304,0.0278,0.0318,0.556,0.119,0.405,0.523
NCI-H520,0.773,0.907,0.912,0.802,0.622,0.515,0.389,0.422,0.742,1,0.934,0.711,0.242,0.232,0.242,0.289,0.443,0.429,0.42,0.394
NCI-H596,0.768,0.616,0.611,0.375,1,0.818,1.02,0.751,0.817,0.74,0.787,0.871,0.948,0.843,0.918,1,0.967,0.735,0.624,0.799
NCI-H647,0.868,0.666,0.672,0.704,1.12,0.866,0.705,0.343,1.21,1.04,0.874,1.06,0.159,0.268,0.241,0.133,0.324,0.211,0.196,0.175
NCI-H650,0.626,0.281,0.475,0.244,0.996,0.515,0.614,0.345,1.07,0.699,0.884,0.777,0.886,0.599,0.436,0.457,0.874,0.492,0.496,0.355
NCI-H661,0.812,0.847,0.737,0.631,0.852,,0.734,1.1,1.1,1.01,0.892,0.884,0.959,1.04,0.838,0.825,0.346,0.368,0.334,0.364
NCI-H727,1.36,0.822,0.83,1.16,1,0.608,0.736,0.516,0.915,0.689,0.695,1.03,0.332,0.274,0.404,0.358,0.584,0.62,0.681,0.609
NCI-H838,0.787,0.837,0.807,0.848,1.15,,0.759,0.66,1.16,,0.996,0.589,0.29,,0.338,0.217,0.289,,0.257,0.222
NCI-H1355,0.664,,0.622,0.499,1.27,,1.16,0.929,0.944,,0.822,0.916,0.776,,0.69,0.576,0.545,,0.528,0.46
NCI-H1437,0.844,0.787,0.701,0.43,0.594,,0.384,0.474,1.28,1.16,1.24,0.942,1.17,1.04,1.03,0.823,0.397,0.406,0.3,0.241
NCI-H1650,0.577,0.386,0.421,0.288,0.375,0.192,0.232,0.195,1.47,1.34,0.902,0.653,0.187,0.203,0.192,0.21,0.466,0.517,0.272,0.235
NCI-H1651,0.572,0.456,0.335,0.594,0.957,0.894,1.02,0.934,0.951,0.892,0.812,0.732,0.985,1.01,0.916,0.71,0.785,0.556,0.541,0.443
NCI-H1666,1.06,0.845,0.855,0.689,1.01,0.702,0.5,0.468,0.954,0.964,0.693,0.6,1.04,0.955,0.708,0.634,0.734,0.626,0.543,0.446
NCI-H1734,0.849,0.705,0.874,0.582,0.911,,0.827,0.841,0.877,0.8,0.781,0.753,0.185,0.209,0.186,0.202,0.275,0.261,0.274,0.243
